Data as given in US20250230193A1, “CYCLIC COMPOUND HAVING SELECTIVE KRAS INHIBITORY EFFECT ON HRAS AND NRAS” (CHUGAI SEIYAKU KABUSHIKI KAISHA, priority 2022, published 2025).

What was measured:
[1] = molecular target: GDP-bound NRAS wild-type protein (Homo sapiens, UniProt P01111); assay: Binding to NRAS by surface plasmon resonance (SPR), Single Cycle Kinetics; conditions: SPR; KD ratio class
[2] = test system: human lung cancer strain NCI-H441; assay: cells; conditions: NCI-H441, 96 h, read-out: NCI-H441 IC50 (nM)
[3] = molecular target: GDP-bound HRAS wild-type protein (Homo sapiens, UniProt P01112); assay: Binding to HRAS by surface plasmon resonance (SPR), Single Cycle Kinetics; conditions: SPR; KD ratio class
GDP-bound HRAS wild-type protein, sequence (P01112 whole entry): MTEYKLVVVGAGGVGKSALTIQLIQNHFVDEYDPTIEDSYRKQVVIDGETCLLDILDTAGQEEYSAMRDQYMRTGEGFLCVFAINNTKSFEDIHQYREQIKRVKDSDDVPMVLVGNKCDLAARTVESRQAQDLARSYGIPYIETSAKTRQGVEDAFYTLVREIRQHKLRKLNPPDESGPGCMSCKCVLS

GDP-bound NRAS wild-type protein, sequence (P01111 whole entry): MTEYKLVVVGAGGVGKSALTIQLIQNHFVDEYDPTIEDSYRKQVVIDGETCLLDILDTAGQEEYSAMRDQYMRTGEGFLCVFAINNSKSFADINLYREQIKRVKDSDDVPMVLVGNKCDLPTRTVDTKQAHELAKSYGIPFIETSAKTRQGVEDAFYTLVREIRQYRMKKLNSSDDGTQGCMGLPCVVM

Structure (SMILES) | NRAS/KRAS (ratio of KD value for GDP-bound NRAS wild-type protein to KD value for KRAS) [1] | IC50 [2] [nM] | HRAS/KRAS (ratio of KD value for GDP-bound HRAS wild-type protein to KD value for KRAS) [3]
CCO[C@@H]1C[C@H]2C(=O)NC3(CCC3)C(=O)N(C)[C@@H](C(CC)CC)C(=O)N(C)[C@H](C(=O)N(C)C)CC(=O)N(C)[C@@H](CC3CC3)C(=O)N[C@@H]([C@@H](C)CC)C(=O)N(C)CC(=O)N(C)[C@H]3C/C=C\CCN(C3=O)[C@@H](Cc3ccc(C(F)(F)F)cc3)C(=O)N(C)CC(=O)N[C@@H](CCc3ccc(C(F)(F)F)c(OC)c3)C(=O)N2C1 [PP1211] | A (a compound having 10 or more and less than 20 is denoted as A) | 26.8 | B (a compound having 3 or more and less than 10 is denoted as B)
CCO[C@@H]1C[C@H]2C(=O)NC3(CCCC3)C(=O)N(C)[C@@H](C3CCCC3)C(=O)N(C)[C@H](C(=O)N(C)C)CC(=O)N(C)[C@@H](CC)C(=O)N[C@@H]([C@@H](C)CC)C(=O)N(C)CC(=O)N(C)[C@H]3C[C@@H](C)[C@@H](C)CN(C3=O)[C@@H](Cc3ccc(C(F)(F)F)cc3)C(=O)N(C)CC(=O)N[C@@H](CCc3ccc(C(F)(F)F)c(Cl)c3)C(=O)N2C1 [PP1358] | A (a compound having 10 or more and less than 20 is denoted as A) | 4.1 | B (a compound having 3 or more and less than 10 is denoted as B)
CCO[C@@H]1C[C@H]2C(=O)NC3(CCC3)C(=O)N(C)[C@@H](C(CC)CC)C(=O)N(C)[C@H](C(=O)N(C)C)CC(=O)N(C)[C@@H](CC3CCCC3)C(=O)N[C@@H]([C@@H](C)CC)C(=O)N(C)CC(=O)N(C)[C@H]3C/C=C\CCN(C3=O)[C@@H](CC3CCC(F)(F)CC3)C(=O)N(C)CC(=O)N[C@@H](CCc3cc(F)c(C(F)(F)F)c(F)c3)C(=O)N2C1 [PP1431] | AA (a compound having 20 or more is denoted as AA) | 41.2 | A (a compound having 10 or more and less than 20 is denoted as A)
CC[C@H](C)[C@@H]1NC(=O)[C@H](CC)N(C)C(=O)C[C@@H](C(=O)N2CCOCC2)N(C)C(=O)[C@H](C2CCCC2)N(C)C(=O)C2(CCC2)NC(=O)[C@@H]2CCCN2C(=O)[C@H](CCc2cc(F)c(C(F)(F)F)c(F)c2)NC(=O)CN(C)C(=O)[C@H](Cc2ccc(C(F)(F)F)cc2)N2C[C@H](C)CC[C@@H](C2=O)N(C)C(=O)CN(C)C1=O [PP1384] | A (a compound having 10 or more and less than 20 is denoted as A) | 13.5 | B (a compound having 3 or more and less than 10 is denoted as B)
CCO[C@@H]1C[C@H]2C(=O)NC3(CCC3)C(=O)N(C)[C@@H](C3CCCC3)C(=O)N(C)[C@H](C(=O)N3CCOCC3)CC(=O)N(C)[C@@H](CC3CCCC3)C(=O)N[C@@H]([C@@H](C)CC)C(=O)N(C)CC(=O)N(C)[C@H]3C/C=C\CCN(C3=O)[C@@H](Cc3ccc(C(F)(F)F)cc3)C(=O)N(C)CC(=O)N[C@@H](CCc3cc(F)c(C(F)(F)F)c(F)c3)C(=O)N2C1 [PP1393] | A (a compound having 10 or more and less than 20 is denoted as A) | 18.2 | A (a compound having 10 or more and less than 20 is denoted as A)
CCO[C@@H]1C[C@H]2C(=O)NC3(CCC3)C(=O)N(C)[C@@H](C(CC)CC)C(=O)N(C)[C@H](C(=O)N(C)C)CC(=O)N(C)[C@@H](CC(C)C)C(=O)N[C@@H]([C@@H](C)CC)C(=O)N(C)CC(=O)N(C)[C@H]3C/C=C\CCN(C3=O)[C@@H](Cc3ccc(F)cc3)C(=O)N(C)CC(=O)N[C@@H](CCc3cc(F)c(C(F)(F)F)c(F)c3)C(=O)N2C1 [PP1519] | A (a compound having 10 or more and less than 20 is denoted as A) | 78.2 | A (a compound having 10 or more and less than 20 is denoted as A)
CCO[C@@H]1C[C@H]2C(=O)NC3(CCC3)C(=O)N(C)[C@@H](C3CCCC3)C(=O)N(C)[C@H](C(=O)N(C)C)CC(=O)N(C)[C@@H](CC3CC3)C(=O)N[C@@H]([C@@H](C)CC)C(=O)N(C)CC(=O)N(C)[C@H]3C/C=C\CCN(C3=O)[C@@H](Cc3ccc(F)cc3C)C(=O)N(C)CC(=O)N[C@@H](CCc3cc(F)c(C(F)(F)F)c(F)c3)C(=O)N2C1 [PP1528] | A (a compound having 10 or more and less than 20 is denoted as A) | 45.6 | B (a compound having 3 or more and less than 10 is denoted as B)
CCO[C@@H]1C[C@H]2C(=O)NC3(CCC3)C(=O)N(C)[C@@H](C3CCCC3)C(=O)N(C)[C@H](C(=O)N3CCOCC3)CC(=O)N(C)[C@@H](CC3CCCCC3)C(=O)N[C@@H]([C@@H](C)CC)C(=O)N(C)CC(=O)N(C)[C@H]3C/C=C\CCN(C3=O)[C@@H](Cc3ccc(C)cc3)C(=O)N(C)CC(=O)N[C@@H](CCc3cc(F)c(C(F)(F)F)c(F)c3)C(=O)N2C1 [PP1420] | A (a compound having 10 or more and less than 20 is denoted as A) | 31.4 | A (a compound having 10 or more and less than 20 is denoted as A)
CCO[C@@H]1C[C@H]2C(=O)NC3(CCC3)C(=O)N(C)[C@@H](C3CCCC3)C(=O)N(C)[C@H](C(=O)N3CCCC3)CC(=O)N(C)[C@@H](CC(C)C)C(=O)N[C@@H]([C@@H](C)CC)C(=O)N(C)CC(=O)N(C)[C@H]3C/C=C\CCN(C3=O)[C@@H](Cc3ccc(C)cc3)C(=O)N(C)CC(=O)N[C@@H](CCc3cc(F)c(C(F)(F)F)c(F)c3)C(=O)N2C1 [PP1416] | A (a compound having 10 or more and less than 20 is denoted as A) | 3.8 | A (a compound having 10 or more and less than 20 is denoted as A)
CCO[C@@H]1C[C@H]2C(=O)NC3(CCCC3)C(=O)N(C)[C@@H](C3CCCC3)C(=O)N(C)[C@H](C(=O)N(C)C)CC(=O)N(C)[C@@H](CC(C)C)C(=O)N[C@@H]([C@@H](C)CC)C(=O)N(C)CC(=O)N(C)[C@H]3C/C=C\CCN(C3=O)[C@@H](CC3CCCCC3)C(=O)N(C)CC(=O)N[C@@H](CCc3cc(F)c(C(F)(F)F)c(F)c3)C(=O)N2C1 [PP1473] | A (a compound having 10 or more and less than 20 is denoted as A) | 36.6 | A (a compound having 10 or more and less than 20 is denoted as A)
CCO[C@@H]1C[C@H]2C(=O)NC3(CCC3)C(=O)N(C)[C@@H](C3CCCC3)C(=O)N(C)[C@H](C(=O)N(C)C)CC(=O)N(C)[C@@H](CC)C(=O)N[C@@H]([C@@H](C)CC)C(=O)N(C)CC(=O)N(C)[C@H]3C/C=C\CCN(C3=O)[C@@H](Cc3ccc(C(F)(F)F)cc3)C(=O)N(C)CC(=O)N[C@@H](CCc3ccc(C(F)(F)F)c(C)c3)C(=O)N2C1 [PP1265] | A (a compound having 10 or more and less than 20 is denoted as A) | 14.1 | B (a compound having 3 or more and less than 10 is denoted as B)
CCO[C@@H]1C[C@H]2C(=O)NC3(CCC3)C(=O)N(C)[C@@H](C(CC)CC)C(=O)N(C)[C@H](C(=O)N(C)C)CC(=O)N(C)[C@@H](C)C(=O)N[C@@H]([C@@H](C)CC)C(=O)N(C)CC(=O)N(C)[C@H]3C/C=C\CCN(C3=O)[C@@H](Cc3ccc(C(F)(F)F)cc3)C(=O)N(C)CC(=O)N[C@@H](CCc3ccc4sccc4c3)C(=O)N2C1 [PP1222] | A (a compound having 10 or more and less than 20 is denoted as A) | 301 | A (a compound having 10 or more and less than 20 is denoted as A)
CCO[C@@H]1C[C@H]2C(=O)NC3(CCC3)C(=O)N(C)[C@@H](C3CCCC3)C(=O)N(C)[C@H](C(=O)N(C)C)CC(=O)N(C)[C@@H](CC3CCCC3)C(=O)N[C@@H]([C@@H](C)CC)C(=O)N(C)CC(=O)N(C)[C@H]3C/C=C\CCN(C3=O)[C@@H](Cc3ccc(C(F)(F)F)cc3)C(=O)N(C)CC(=O)N[C@@H](CCc3ccc(Cl)c(Cl)c3)C(=O)N2C1 [PP1254] | AA (a compound having 20 or more is denoted as AA) | 28.3 | A (a compound having 10 or more and less than 20 is denoted as A)
CCO[C@@H]1C[C@H]2C(=O)NC3(CC(C)(C)C3)C(=O)N(C)[C@@H](C3CCCC3)C(=O)N(C)[C@H](C(=O)N(C)C)CC(=O)N(C)[C@@H](CC)C(=O)N[C@@H]([C@@H](C)CC)C(=O)N(C)CC(=O)N(C)[C@H]3C/C=C\CCN(C3=O)[C@@H](Cc3ccc(C(F)(F)F)cc3)C(=O)N(C)CC(=O)N[C@@H](CCc3ccc(C(F)(F)F)c(OC)c3)C(=O)N2C1 [PP1559] | A (a compound having 10 or more and less than 20 is denoted as A) | 1.8 | A (a compound having 10 or more and less than 20 is denoted as A)
